Patent publication US20180133283A1, “METHOD AND COMPOSITIONS FOR SYNCHRONIZING TIME OF INSEMINATION IN GILTS” (JBS UNITED ANIMAL HEALTH II LLC, priority 2012, published 2018)

Experiments:
Type in all cases: in vivo, swine
[1] = system: gilts; test: Example 1: estrus observation (boar exposure, back pressure) after triptorelin gel; conditions: raw averages; PTK 1-07 (rep 3); 200 mcg T at 120 h
Method: (§1) All gilts were individually fed MATRIX® as a top-dress for 14 days at the recommended rate of 15 mg/gilt/day. Gilts were withdrawn from MATRIX® feeding (last top feed in the morning on Day 0) and allotted to treatments. Controls were treated with a 1.2% methylcellulose gel formulation without triptorelin at 96 hours following MATRIX® withdrawal (last top-dress). The remaining gilts received 200 mcg triptorelin, as the acetate, in a 1.2% methylcellulose gel formulation intravaginally at various times after MATRIX® withdrawal. The four treatments were: 1) vehicle gel (VG) treatment at 96 hours after MATRIX® withdrawal, 2) triptorelin gel (TG) treatment at 96 hours after MATRIX® withdrawal, 3) TG treatment at 120 hours after MATRIX® withdrawal and 4) TG treatment at 144 hours after MATRIX® withdrawal. All gilts were monitored for their estrous and ovulatory status as described below. Gilts included in replicate 1 were selected from terminal line commercial production gilts located in grow/finish barns. Sexual maturity, as indicated by one or more estrous periods, was not verified prior to the start of MATRIX® feeding. Gilts included in replicate 2 were selected from a maternal line gilt population. Sexual maturity was verified by at least one estrous period verified and recorded prior to starting MATRIX® feeding.
For post-treatment estrus detection, gilts were housed in individual pens. […]

[2] = system: gilts; test: Example 5: ovulation monitoring by transrectal ultrasonography after 100, 200 or 400 mcg triptorelin gel at 120 h after MATRIX withdrawal; conditions: for Percentage ovulated by 48 hours: catheterized subpopulation; for % of Sows Ovulating: raw averages, PTK 2-07
Method: All gilts were individually fed MATRIX® as a top-dress for 14 or 15 days at the recommended rate of 15 mg/gilt/day. Gilts were withdrawn from MATRIX® feeding (last top-dress in the morning on Day 0) and allocated to each of the following treatments. Controls were vehicle gel treated (vehicle gel without triptorelin) at 120 (+/−2) hours following MATRIX® withdrawal (last top dress). The other gilts were given 100, 200 or 400 mcg triptorelin as the acetate in a methylcellulose gel formulation 120 (+/−2) hours following MATRIX® withdrawal. The four treatments were:
1. Vehicle gel (VG): vehicle gel without triptorelin at 120 (+/−2) hours after MATRIX® withdrawal.
2. TG 100: 100 mcg (2 mL 50 mcg/mL) triptorelin gel at 120 (+/−2) hours after MATRIX® withdrawal.
3. TG 200: 200 mcg (2 mL 100 mcg/mL) triptorelin gel at 120 (+/−2) hours after MATRIX® withdrawal.
4. TG 400: 400 mcg (2 mL 200 mcg/mL) triptorelin gel at 120 (+/−2) hours after MATRIX® withdrawal.
Ovulation was monitored twice on Day 5 (8 hours and 16 hours post-treatment) and every 8 hours on Day 6 and Day 7 or until ovulation was confirmed or 176 hours following last MATRIX® feeding. The ovulatory status of all gilts was monitored by transrectal ultrasonography. An Aloka 500 ultrasound machine is used for this purpose, with a 7.5 MHz linear array transducer attached to a fixed-angle PVC stabilizing rod to facilitate insertion into the rectum. The transducer and PVC rod are coated with a gynecological lubricant and gently inserted into the rectum until the ovaries can be visualized, one at a time. The diameters of the three largest follicles were recorded (to the nearest 0.1 mm) at each scanning. A gilt was declared to have ovulated when the number of large follicles 6.5 mm) fell to less than 3.
(§2) A single 2 mL dose of triptorelin gel or vehicle gel was deposited within approximately 1-2 cm posterior to the cervix with a catheter similar to those used for artificial insemination. The dose was delivered using a standard multi-dose applicator attached to the catheter. A new disposable sheath, which surrounds the catheter, was used for each gilt.

[3] = system: gilts; test: Example 1: ovulation monitoring by transrectal ultrasonography after 200 mcg triptorelin gel intravaginally at 96, 120 or 144 h after MATRIX withdrawal; conditions: raw averages, PTK 1-07 (rep 3), 200 mcg T
Method: as §1
The ovulatory status of all gilts was monitored by transrectal ultrasonography. For replicate one, ovulation was monitored two times on Day 5, then three times a day from Day 6 to Day 8. For replicate two, ovulation was monitored three times a day from Day 5 to Day 8. An Aloka 500 ultrasound machine with a 7.5 MHz linear array transducer attached to a fixed-angle PVC stabilizing rod to facilitate insertion into the rectum was used for this purpose. The transducer and PVC rod were coated with a gynecological lubricant and gently inserted into the rectum until the ovaries were visualized, one at a time. The diameters of the three largest follicles were recorded (to the nearest 0.1 mm) at each scanning. A gilt was declared to have ovulated when the number of large follicles (≥6.5 mm) fell to less than 3.
as §2
Data were analyzed using the Mixed Models procedures of SAS. Models included main effects of time of treatment following the last feeding of MATRIX®, replicate, and treatment by replicate interaction. Differences between treatments were tested on least squares means estimates using the T test at P<0.05. Data for analysis were tested for assumptions of data normality.

[4] = system: gilts; test: Example 5: estrus observation; conditions: raw averages, PTK 2-07
Method: For post-treatment estrus detection, gilts were housed in individual pens. Boars were housed in separate rooms, and/or at least 12 m away and downwind. To elicit signs of estrus, a mature boar was walked slowly in the alley in front of the gilts' crates, exposing each test gilt to visual, auditory and olfactory signals from the boar for up to 5 minutes. In keeping with standard practice at commercial farms, while the boar was near the front of the gilt's crate, estrus was tested by an experienced person applying back pressure to the midsection of the gilt combined with side rubbing. Estrus was confirmed when a gilt stood rigidly to the back pressure, with no vocalization and with some indication of an ear reflex. Gilts were not exposed to boars during the first three days after withdrawal of MATRIX® (Day 0 to Day 2). Estrus detection was performed daily on all gilts from Day 3 to Day 7.

[5] = system: serum LH; test: Example 5: blood collection and serum LH analysis (LH surge); conditions: for Gilts, which displayed a LH surge: number of gilts
Method: A catheter was inserted non-surgically into the jugular vein (Kraeling et al. 1982) of a subpopulation of gilts in each treatment group (vehicle gel, n=8; 100 mcg triptorelin, n=6; 200 mcg triptorelin, n=7 and 400 mcg triptorelin, n=6). Ten mL blood samples were collected every 15 minutes for one hour prior to treatment, immediately following treatment (0) and at 0.5, 1, 2, 4, 6, 12, 18, 24, 36 and 48 hours after treatment. Blood samples were maintained at 4° C. until centrifuged at 800×g for 15 minutes within 12 hours of collection. The resulting serum was stored frozen until assayed for LH using validated procedures for pig serum (Kesner et al., 1987 and Kraeling et al., 1982). Onset, duration, and magnitude of the LH surge were analyzed. The LH data were analyzed with the General Linear Models procedure of SAS. Differences between treatments were tested on least squares means estimates using the T test at P<0.05. Onset of the LH surge is when serum LH concentration is greater than or equal to two standard deviations of the mean of the pre-treatment serum LH concentrations. Duration of the LH surge is the period between onset and when serum LH concentration is again less than or equal to two standard deviations of the mean of the pre-treatment serum LH concentrations. Magnitude of the LH surge is the maximum serum LH concentration reached during the LH surge.

[6] = relative to time of triptorelin gel treatment, 200 mcg T

## CC(C)C[C@H](NC(=O)[C@@H](Cc1c[nH]c2ccccc12)NC(=O)[C@H](Cc1ccc(O)cc1)NC(=O)[C@H](CO)NC(=O)[C@H](Cc1c[nH]c2ccccc12)NC(=O)[C@H](Cc1c[nH]cn1)NC(=O)[C@@H]1CCC(=O)N1)C(=O)N[C@@H](CCCNC(=N)N)C(=O)N1CCC[C@H]1C(=O)NCC(N)=O [T, pGlu-His-Trp-Ser-Tyr-D-Trp-Leu-Arg-Pro-Gly-NH2]
[1]
  Estrous Expression (%): 100.0%
[2]; 100 mcg T (n = 6)
  Percentage ovulated by 48 hours: 100%
[2]; 200 mcg T (n = 7)
  Percentage ovulated by 48 hours: 100%
[2]; 400 mcg T (n = 6)
  Percentage ovulated by 48 hours: 100%
[2]; 100 mcg T, 128 h post-MATRIX, 8 h post-T
  % of Sows Ovulating: 0.0%
[2]; 100 mcg T, 136 h post-MATRIX, 16 h post-T
  % of Sows Ovulating: 5.0%
[2]; 100 mcg T, 144 h post-MATRIX, 24 h post-T
  % of Sows Ovulating: 20.0%
[2]; 100 mcg T, 152 h post-MATRIX, 32 h post-T
  % of Sows Ovulating: 30.0%
[2]; 100 mcg T, 160 h post-MATRIX, 40 h post-T
  % of Sows Ovulating: 60.0%
[2]; 100 mcg T, 168 h post-MATRIX, 48 h post-T
  % of Sows Ovulating: 95.0%
[2]; 100 mcg T, 176 h post-MATRIX, 56 h post-T
  % of Sows Ovulating: 100.0%
[2]; 200 mcg T, 128 h post-MATRIX, 8 h post-T
  % of Sows Ovulating: 0.0%
[2]; 200 mcg T, 136 h post-MATRIX, 16 h post-T
  % of Sows Ovulating: 0.0%
[2]; 400 mcg T, 128 h post-MATRIX, 8 h post-T
  % of Sows Ovulating: 4.5%
[2]; 400 mcg T, 136 h post-MATRIX, 16 h post-T
  % of Sows Ovulating: 9.1%
[2]; 400 mcg T, 168 h post-MATRIX, 48 h post-T
  % of Sows Ovulating: 100.0%
[2]; 400 mcg T, 176 h post-MATRIX, 56 h post-T
  % of Sows Ovulating: 100.0%
[3]; 128 h post-MATRIX, 8 h post-T
  % of Sows Ovulating: 0.0%
[3]; 136 h post-MATRIX, 16 h post-T
  % of Sows Ovulating: 10.0%
[3]; 144 h post-MATRIX, 24 h post-T
  % of Sows Ovulating: 30.0%
[3]; 152 h post-MATRIX, 32 h post-T
  % of Sows Ovulating: 70.0%
[3]; 160 h post-MATRIX, 40 h post-T
  % of Sows Ovulating: 80.0%
[3]; 168 h post-MATRIX, 48 h post-T
  % of Sows Ovulating: 90.0%
[3]; 176 h post-MATRIX, 56 h post-T
  % of Sows Ovulating: 100.0%
[4]; 100 mcg T at 120 h
  Estrous Expression (%): 75.0%
[4]; 200 mcg T at 120 h
  Estrous Expression (%): 81.0%
[5]; 200 mcg T
  Duration of LH surge: 18
[5]; LS mean ± SE, relative to time of triptorelin gel treatment, 100 mcg T
  Onset of LH surge: 4 ± 3
[5]; LS mean ± SE, relative to time of triptorelin gel treatment, 400 mcg T
  Onset of LH surge: 4 ± 4
[5]; 100 mcg T (n = 6)
  Gilts, which displayed a LH surge: 4
[5]; 200 mcg T (n = 7)
  Gilts, which displayed a LH surge: 1
[5]; 400 mcg T (n = 6)
  Gilts, which displayed a LH surge: 5
[5]; [6]
  Onset of LH surge: 0.5
  Time of maximum LH conc.: 4 h
